One data set relates to chrondrocytes. Particulars: Yokota 2015; cited from earlier work.
The subject of data set [1] is mice with intratracheal administration of LPS. The data set is described as follows: LPS-induced lung injury in mice (intratracheal LPS). Format: in vivo. To be noted: for lung injury after intratracheal LPS: 2% H2 and/or 20 ppm NO for 3 hours starting at 5 minutes or 3 hours after LPS administration; for pulmonary inflammation and cell apoptosis: H2 and/or NO treatment. From the text:
Applicants have discovered that NO's effect as an antioxidant may be enhanced by eliminating highly reactive by-products of NO inhalation such as peroxynitrite, by adding H2 to inhaled NO gas.

The subject of data set [2] is rat brain ischemia-reperfusion (I/R). Particulars: acute rat model, inhaled; Ohsawa 2007; cited from earlier work.
The test system of the next data set is neonatal piglets. Particulars: short-term exposure, Ekekezie 2000; cited from earlier work.
The test system of a further data set is rats exposed to high O2. To be noted: cited from earlier work.
The next data set deals with HIF. To be noted: cited from earlier work.

`[HH]` [H2, hydrogen]: the “effect on cells under oxidant injury” value with chrondrocytes is on record as “cytoprotective effects”. Moreover, in data set [1], the “lung injury after intratracheal LPS” value is reported as “significantly improved”; the “pulmonary inflammation and cell apoptosis” value was “down-regulated”. For the same compound, the “brain injury associated with focal ischemia-reperfusion” value in data set [2] is given as “markedly suppressed”.
As to `O=O` [O2, oxygen], the lung collagen accumulation entry in the data set on neonatal piglets is given as “increases lung collagen accumulation”.
Consider `[N]=O` [NO, nitric oxide], for which the “survival in high O2 exposure” value with rats exposed to high O2 (rats, inhaled NO) is “increase survival”. Also, in data set [1], the “lung injury after intratracheal LPS” value is listed as “significantly improved”; the “pulmonary inflammation and cell apoptosis” value is on record as “down-regulated”. For the same compound, the “effect on HIF at high doses” value in the data set on HIF (high doses and after 30 minutes) is reported as “inhibitory”. In addition, the “effect on HIF at low dose” value with HIF (low dose, for 30 minutes, during hypoxia) was “stimulates”. Besides, in the data set with neonatal piglets, the lung collagen accumulation result is “increases lung collagen accumulation”.
`COC(=O)[C@@H](N)CCCN=C(N)N[N+](=O)[O-]` [Nω-nitro-1-arginine methyl ester]: in the data set on rats exposed to high O2 (neonatal rats, compared with control rats), the “survival on exposure to >95% O2 with endogenous NO production blocked” value is reported as “significantly fewer survived”.

These data come from patent US20200368271A1, “METHOD AND APPARATUS FOR ADMINISTERING GASES INCLUDING NITRIC OXIDE” (priority 2015, published 2020).
